According to patent publication US20260364080A1, “PYRAZOLO-PYRIMIDINONE COMPOUNDS FOR USE IN METHODS OF INHIBITING WEE1 A KINASE” (Acrivon Therapeutics, Inc., priority 2023, published 2026):

Tests used:
[1] = test system: DAOY cells; experiment: Cell Titer Glo viability assay, DAOY cells; type: cell-based; details: Homo sapiens, 144 h, absolute EC50
Summary of the method: (§1)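 Cells grown in MEM with 10% FCS were seeded at 500 (A427), 400 (ACHN) or 250 (DAOY) per well and treated the next day with compound at 17 to 10 000 nM. Viability relative to untreated control was read at 144 h by CellTiter-Glo 2.0.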

[2] = molecular target: T1, Myt1 kinase (recombinant PMYT-1) (Homo sapiens, UniProt Q99640); experiment: Myt1 kinase binding assay (LanthaScreen Eu Kinase Binding Assay); details: 3 nM tracer 178, 2.5 nM PMYT-1, 1 nM Eu-labeled antibody; read-out: Myt1 kinase Binding IC50
T1 construct: full length PMYT-1 was expressed by baculovirus in insect cells; purchased Invitrogen A30984; host or cells: insect cells (baculovirus)
T1 sequence (Q99640 1-499): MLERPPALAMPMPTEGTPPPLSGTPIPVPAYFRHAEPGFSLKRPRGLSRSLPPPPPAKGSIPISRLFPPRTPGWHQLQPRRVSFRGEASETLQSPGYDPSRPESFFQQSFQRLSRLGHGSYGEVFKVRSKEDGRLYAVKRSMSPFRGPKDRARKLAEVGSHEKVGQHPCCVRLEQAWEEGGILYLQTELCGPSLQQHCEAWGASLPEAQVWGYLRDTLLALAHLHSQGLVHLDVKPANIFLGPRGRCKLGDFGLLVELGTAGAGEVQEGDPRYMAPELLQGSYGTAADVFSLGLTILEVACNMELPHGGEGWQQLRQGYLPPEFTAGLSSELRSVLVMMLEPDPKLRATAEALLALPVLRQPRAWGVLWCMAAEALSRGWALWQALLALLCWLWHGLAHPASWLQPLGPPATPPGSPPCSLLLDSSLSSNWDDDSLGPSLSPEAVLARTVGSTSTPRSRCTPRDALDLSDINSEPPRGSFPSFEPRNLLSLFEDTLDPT
Summary of the method: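 Compound binding to Myt1 kinase was assessed using the LanthaScreen Eu Kinase Binding Assay. This europium-based binding format was applied to quantify how strongly each compound bound to the Myt1 enzyme, and the binding affinity was reported for each compound as an IC50 value.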

[3] = molecular target: T2, recombinant human Wee1A kinase (Homo sapiens, UniProt P30291); experiment: Wee1A kinase binding assay (LanthaScreen Eu time-resolved FRET); details: 30 nM tracer 178, 5 nM Wee1A kinase, 2 nM Eu-labeled antibody; 60 minutes at room temperature; read-out: Wee1A kinase Binding IC50
T2 construct: full length Wee1 kinase was expressed by baculovirus in insect cells; purchased Invitrogen PV3817; host or cells: insect cells (baculovirus)
T2 sequence (P30291 whole entry): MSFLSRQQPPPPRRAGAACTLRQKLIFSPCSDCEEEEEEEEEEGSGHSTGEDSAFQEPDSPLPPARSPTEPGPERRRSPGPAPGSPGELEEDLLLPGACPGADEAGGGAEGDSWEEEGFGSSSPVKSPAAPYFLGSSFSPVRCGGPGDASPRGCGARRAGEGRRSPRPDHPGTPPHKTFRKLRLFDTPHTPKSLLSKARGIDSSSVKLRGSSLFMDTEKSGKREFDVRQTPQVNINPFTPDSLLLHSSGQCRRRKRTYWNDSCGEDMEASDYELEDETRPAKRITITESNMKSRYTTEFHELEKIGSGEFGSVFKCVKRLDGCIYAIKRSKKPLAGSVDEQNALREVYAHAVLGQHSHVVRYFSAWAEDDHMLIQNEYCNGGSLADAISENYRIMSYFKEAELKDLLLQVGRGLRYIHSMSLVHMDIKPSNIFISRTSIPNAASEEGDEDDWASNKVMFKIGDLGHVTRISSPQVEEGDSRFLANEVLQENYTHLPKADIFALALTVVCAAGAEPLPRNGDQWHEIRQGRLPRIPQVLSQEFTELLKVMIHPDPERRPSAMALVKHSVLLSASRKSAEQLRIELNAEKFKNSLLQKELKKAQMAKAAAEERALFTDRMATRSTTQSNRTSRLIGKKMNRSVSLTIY
Summary of the method: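 Full-length, baculovirus-expressed GST-tagged Wee1A (5 nM) was mixed with 2 nM Eu-anti-GST antibody, 30 nM kinase tracer 178 and compound (1% DMSO). Buffer was 50 mM HEPES pH 7.5, 10 mM MgCl2, 1 mM EGTA, 0.01% Brij-35, incubated 60 min at room temperature. TR-FRET 665/615 nm emission ratios from duplicates were curve-fitted.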

[4] = molecular target: T3, Myt1 kinase (CDK1 Thr14 phosphorylation in ACHN renal cell carcinoma cells) (Homo sapiens, UniProt Q99640); experiment: AlphaLISA assay, Myt1 kinase target engagement (phospho-CDK1 Thr14) in ACHN cells; type: cell-based; details: ACHN cells (marked *); 4 h treatment
T3 construct: pCDK1 Thr14 AlphaLISA read-out
T3 sequence (Q99640 1-499): T1 sequence (Q99640 1-499)
Summary of the method: (§2)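 Cells seeded at 10,000 (DAOY) or 20,000 (ACHN) per well, treated 24 h later for 4 h with compound at 7–5000 nM. Lysates analysed by AlphaLISA SureFire Ultra phospho-CDK1 (Thr14) with donor/acceptor beads; EC50 from dose-response curves.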

[5] = test system: ACHN cells; experiment: Cell Titer Glo viability assay, ACHN cells; type: cell-based; details: Homo sapiens, 144 h, absolute EC50
Summary of the method: as §1

[6] = test system: A427 cells; experiment: Cell Titer Glo viability assay, A427 cells; type: cell-based; details: Homo sapiens, A-427, 144 h, absolute EC50
Method: Each of an ACHN renal cell carcinoma cell line (ATCC) and a DAOY medulloblastoma cell line, and an A427 lung cancer line were cultured in Minimum Essential Medium Eagle supplemented with 10% fetal calf serum (Sigma), 1% Penicillin-Streptomycin and 10 mM HEPES buffer (HyClone). Cell cultures were kept in a humidified incubator at 37 °C and 5% CO2. Cells were routinely tested for Mycoplasma contamination.
ACHN cells, DAOY cells, or A427 cells were seeded at a density of 400, 250, or 500 cells per well respectively, in tissue culture treated 384 well plates (Corning Costar). After overnight incubation, cells were treated with drugs at concentrations ranging from 17 to 10 000 nM. Viability compared to untreated control was assessed at 144 h using Cell Titer Glo assay 2.0 (Promega). […] “NT” means the compounds was not tested in the indicated cells.

[7] = molecular target: T4, Wee1A kinase (CDK1 Tyr15 phosphorylation in ACHN renal cell carcinoma cells) (Homo sapiens, UniProt P30291); experiment: High-content imaging of pCdk1 Y15, Wee1A kinase target engagement in ACHN cells; type: cell-based; details: 4 h treatment, nuclear positivity for pCdk1 Y15 vs DMSO control, read-out: CDK1 Tyr15 Phosphorylation EC50
T4 construct: pCDK1 Tyr15 immunofluorescence read-out
T4 sequence (P30291 whole entry): as above
Summary of the method: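 EC50 values come from the per-well fraction of cells with nuclear pCdk1 Y15 staining, normalised to DMSO control, by automated immunofluorescence imaging. Cells were ACHN renal carcinoma, treated 4 h with compound at 7–5,000 nM or 0.3–200 nM.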

[8] = molecular target: T5, Myt1 kinase (CDK1 Thr14 phosphorylation in DAOY medulloblastoma cells) (Homo sapiens, UniProt Q99640); experiment: AlphaLISA assay, Myt1 kinase target engagement (phospho-CDK1 Thr14) in DAOY cells; type: cell-based; details: 4 h treatment, read-out: CDK1 Thr14 Phosphorylation EC50
T5 construct: pCDK1 Thr14 AlphaLISA read-out
T5 sequence (Q99640 1-499): T1 sequence (Q99640 1-499)
Summary of the method: as §2

[9] = test system: RAS/TP53 mutated metastatic colorectal cancer; details: cited from earlier work
[10] = test system: uterine serous carcinoma; details: phase II study, women with uterine serous carcinoma; cited from earlier work

Row | SMILES | IC50 [2] | IC50 [3] | EC50 [4] | EC50 [5] | EC50 [7] | EC50 [8] | EC50 [1] | EC50 [6] | effect compared to active monitoring [9] | clinical activity [10]
1 | CCn1c(=O)c2cnc(Nc3ccc4c(cnn4C)c3)nc2n1-c1cccc(OC2CCN(C)CC2)n1 [Compound 114, 2-ethyl-6-(1-methyl-1H-indazol-5-ylamino)-1-[6-(1-methyl-4-piperidyloxy)-2-pyridyl]-1,2-dihydro-3H-1,2,5,7-tetraazainden-3-one] | 20 to 100 nM | < 10 nM | 500 to 1000 nM | ≤ 100 nM | < 100 nM | – | ≤ 100 nM | 100 to 500 nM | – | –
2 | C=CCn1c(=O)c2cnc(Nc3ccc4c(cnn4C)c3)nc2n1-c1cccc(OC2CCN(C)CC2)n1 [Compound 109, 2-allyl-6-(1-methyl-1H-indazol-5-ylamino)-1-[6-(1-methyl-4-piperidyloxy)-2-pyridyl]-1,2-dihydro-3H-1,2,5,7-tetraazainden-3-one] | < 20 nM | < 10 nM | – | ≤ 100 nM | < 100 nM | < 200 nM | ≤ 100 nM | ≤ 100 nM | – | –
3 | C=CCn1c(=O)c2cnc(Nc3ccc(N4CCN(C)CC4)cc3)nc2n1-c1cccc(C(C)(C)O)n1 [AZD1775, adavosertib] | – | – | – | – | – | – | – | – | shown effect compared to active monitoring | promising results

The next lines start with results.

Row | IC50 [2] | IC50 [3] | EC50 [4] | EC50 [5] | EC50 [7] | EC50 [8] | SMILES | EC50 [1] | EC50 [6] | effect compared to active monitoring [9] | clinical activity [10]
4 | 20 to 100 nM | < 10 nM | – | ≤ 100 nM | < 100 nM | < 200 nM | C=CCn1c(=O)c2cnc(Nc3ccc(OCCF)cc3)nc2n1-c1cccc(OC2CCN(C)CC2)n1 [Compound 234, 2-allyl-6-((4-(2-fluoroethoxy)phenyl)amino)-1-(6-((1-methylpiperidin-4-yl)oxy)pyridin-2-yl)-1,2-dihydro-3H-pyrazolo[3,4-d]pyrimidin-3-one] | ≤ 100 nM | ≤ 100 nM | – | –
5 | 20 to 100 nM | < 10 nM | – | ≤ 100 nM | < 100 nM | < 200 nM | C=CCn1c(=O)c2cnc(Nc3ccc4c(c3)ncn4C)nc2n1-c1cccc(OC2CCN(C)CC2)n1 [Compound 211, 2-allyl-6-(1-methyl-1H-1,3-benzimidazol-5-ylamino)-1-[6-(1-methyl-4-piperidyloxy)-2-pyridyl]-1,2-dihydro-3H-1,2,5,7-tetraazainden-3-one] | ≤ 100 nM | ≤ 100 nM | – | –
